Reference: PubChem BioAssay AID248 (DTP/NCI, 2004)
Toxic doses and inconclusive results are not listed. Rule as the data show it: active = T/C of 150% or more; inactive = T/C below 125%.

Test system: L1210 leukemia ip in BDF1 mice, survival T/C
Assay: NCI In Vivo Anticancer Drug Screen. Data for tumor model L1210 Leukemia (intraperitoneal) in B6D2F1 (BDF1) mice
Conditions: endpoint: mean survival time, higher = longer survival
Summary of the method: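 In this screen, tumor-bearing mice given compound are compared to those given vehicle, and their survival values are reported as a treated-to-control quotient.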

[1] = dose: 100.0 mg/kg/injection, schedule: Q04DX003 (ip), vehicle: saline with Tween-80
[2] = dose: 100.0 mg/kg/injection, schedule: Q04DX002 (ip), vehicle: Klucel (hydroxypropylcellulose) (HPC)
[3] = dose: 200.0 mg/kg/injection, schedule: Q04DX002 (ip), vehicle: Klucel (hydroxypropylcellulose) (HPC)
[4] = dose: 400.0 mg/kg/injection, schedule: Q04DX002 (ip), vehicle: Klucel (hydroxypropylcellulose) (HPC)
[5] = dose: 50.0 mg/kg/injection, schedule: Q01DX009 (ip), vehicle: saline
[6] = dose: 50.0 mg/kg/injection, schedule: Q04DX003 (ip), vehicle: saline
[7] = dose: 100.0 mg/kg/injection, schedule: Q01DX009 (ip), vehicle: saline
[8] = dose: 100.0 mg/kg/injection, schedule: Q04DX003 (ip), vehicle: saline
[9] = dose: 200.0 mg/kg/injection, schedule: Q01DX009 (ip), vehicle: saline
[10] = dose: 200.0 mg/kg/injection, schedule: Q04DX003 (ip), vehicle: saline
[11] = dose: 400.0 mg/kg/injection, schedule: Q04DX003 (ip), vehicle: saline
[12] = dose: 100.0 mg/kg/injection, schedule: Q01DX001 (ip), vehicle: saline
[13] = dose: 400.0 mg/kg/injection, schedule: Q01DX001 (ip), vehicle: saline
[14] = dose: 400.0 mg/kg/injection, schedule: Q01DX009 (ip), vehicle: saline
[15] = dose: 200.0 mg/kg/injection, schedule: Q01DX001 (ip), vehicle: saline

Measured: T/C

[O-][n+]1c(CCl)nc2cccc3c2c1-c1ccccc1-3
inactive: dose: 25.0 mg/kg/injection, schedule: Q01DX009 (ip), vehicle: saline with Tween-80 108 % of control | dose: 50.0 mg/kg/injection, schedule: Q01DX009 (ip), vehicle: saline with Tween-80 110 % of control | dose: 50.0 mg/kg/injection, schedule: Q04DX003 (ip), vehicle: saline with Tween-80 102 % of control | dose: 100.0 mg/kg/injection, schedule: Q01DX009 (ip), vehicle: saline with Tween-80 104 % of control | [1] 107 % of control

CCCCCCNC(=O)c1cccc(C(=O)NCCCCCC)c1
inactive: [2] 88 % of control | [3] 94 % of control | [4] 98 % of control

C[P+](Cc1ccccc1)(c1ccccc1)c1ccccc1
inactive: dose: 1.25 mg/kg/injection, schedule: Q01DX001 (ip), vehicle: other 101 % of control | dose: 2.5 mg/kg/injection, schedule: Q01DX001 (ip), vehicle: other 94 % of control | dose: 5.0 mg/kg/injection, schedule: Q01DX001 (ip), vehicle: other 98 % of control

Nc1ccc2c(c1)oc1ccccc12
inactive: [2] 107 % of control | [3] 103 % of control | [4] 110 % of control

CCNC(=O)CCP(=O)(CCC(=O)NCC)CCC(=O)NCC
inactive: [5] 94 % of control | [6] 101 % of control | [7] 90 % of control | [8] 101 % of control | [9] 90 % of control | [10] 101 % of control | [11] 101 % of control

Cc1cc(-c2ccccc2)c2c(C#N)cn(-c3cccc(Cl)c3)c2n1
inactive: dose: 100.0 mg/kg/injection, schedule: Q01DX001 (ip), vehicle: saline with Tween-80 92 % of control | [12] 87 % of control | dose: 200.0 mg/kg/injection, schedule: Q01DX001 (ip), vehicle: saline with Tween-80 106 % of control | dose: 400.0 mg/kg/injection, schedule: Q01DX001 (ip), vehicle: saline with Tween-80 92 % of control | [13] 102 % of control

CCCCCCCCCCCc1cc(=O)n(-c2cc(Cl)ccc2Cl)n1C
inactive: [1] 98 % of control

CCCCN(CCCC)CCNc1ccc(C)c2sc3ccccc3c(=O)c12
inactive: dose: 40.0 mg/kg/injection, schedule: Q01DX Z (ip), vehicle: carboxymethylcellulose (CMC) 104 % of control | dose: 600.0 mg/kg/injection, schedule: Q01DX Z (ip), vehicle: carboxymethylcellulose (CMC) 95 % of control

CC1(C)N=C(N)N=C(N)N1c1ccccc1F
inactive: dose: 25.0 mg/kg/injection, schedule: Q01DX009 (ip), vehicle: saline 93 % of control | dose: 38.0 mg/kg/injection, schedule: Q01DX001 (ip), vehicle: saline 101 % of control | [5] 91 % of control | dose: 75.0 mg/kg/injection, schedule: Q01DX001 (ip), vehicle: saline 101 % of control | dose: 75.0 mg/kg/injection, schedule: Q01DX009 (ip), vehicle: saline 110 % of control

C=C=[CH][Sn]([c]1ccccc1)([c]1ccccc1)[c]1ccccc1
inactive: dose: 12.5 mg/kg/injection, schedule: Q01DX009 (ip), vehicle: Klucel (hydroxypropylcellulose) (HPC) 100 % of control | dose: 12.5 mg/kg/injection, schedule: Q04DX003 (ip), vehicle: Klucel (hydroxypropylcellulose) (HPC) 99 % of control | dose: 25.0 mg/kg/injection, schedule: Q01DX009 (ip), vehicle: Klucel (hydroxypropylcellulose) (HPC) 102 % of control | dose: 25.0 mg/kg/injection, schedule: Q04DX003 (ip), vehicle: Klucel (hydroxypropylcellulose) (HPC) 106 % of control | dose: 50.0 mg/kg/injection, schedule: Q01DX009 (ip), vehicle: Klucel (hydroxypropylcellulose) (HPC) 89 % of control | dose: 50.0 mg/kg/injection, schedule: Q04DX003 (ip), vehicle: Klucel (hydroxypropylcellulose) (HPC) 99 % of control

CCC[Si](Cl)(CCC)CCC
inactive: dose: 18.75 mg/kg/injection, schedule: Q01DX009 (ip), vehicle: acetone 98 % of control | dose: 37.5 mg/kg/injection, schedule: Q01DX009 (ip), vehicle: acetone 94 % of control | dose: 37.5 mg/kg/injection, schedule: Q04DX003 (ip), vehicle: acetone 99 % of control | dose: 75.0 mg/kg/injection, schedule: Q01DX001 (ip), vehicle: acetone 93 % of control | dose: 75.0 mg/kg/injection, schedule: Q01DX009 (ip), vehicle: acetone 96 % of control | dose: 75.0 mg/kg/injection, schedule: Q04DX003 (ip), vehicle: acetone 94 % of control | dose: 150.0 mg/kg/injection, schedule: Q01DX001 (ip), vehicle: acetone 101 % of control | dose: 150.0 mg/kg/injection, schedule: Q04DX003 (ip), vehicle: acetone 100 % of control | dose: 300.0 mg/kg/injection, schedule: Q01DX001 (ip), vehicle: acetone 86 % of control

CNc1[nH]c(=S)ncc1C
inactive: dose: 100.0 mg/kg/injection, schedule: Q01DX Z (ip), vehicle: methylcellulose (MC) 100 % of control | dose: 200.0 mg/kg/injection, schedule: Q01DX Z (ip), vehicle: methylcellulose (MC) 99 % of control

OC1COC(O)C(O)C1O (stereo unspecified)
inactive: [7] 98 % of control | [8] 104 % of control | [9] 103 % of control | [10] 111 % of control | dose: 250.0 mg/kg/injection, schedule: Q04DX003 (ip), vehicle: saline 93 % of control | [14] 104 % of control | [11] 104 % of control | dose: 500.0 mg/kg/injection, schedule: Q04DX003 (ip), vehicle: saline 96 % of control | dose: 1000.0 mg/kg/injection, schedule: Q04DX003 (ip), vehicle: saline 102 % of control | dose: 2000.0 mg/kg/injection, schedule: Q04DX003 (ip), vehicle: saline 91 % of control

Nc1cccc(CC(=O)c2ccccc2)n1
inactive: dose: 5.0 mg/kg/injection, schedule: Q01DX001 (ip), vehicle: saline 97 % of control | dose: 10.0 mg/kg/injection, schedule: Q01DX001 (ip), vehicle: saline 106 % of control | dose: 20.0 mg/kg/injection, schedule: Q01DX001 (ip), vehicle: saline 100 % of control | dose: 40.0 mg/kg/injection, schedule: Q01DX001 (ip), vehicle: saline 97 % of control | dose: 80.0 mg/kg/injection, schedule: Q01DX001 (ip), vehicle: saline 100 % of control | [15] 106 % of control

c1ccc(CN2C3c4ccccc4C2c2ccccc23)cc1
inactive: [12] 96 % of control | [15] 112 % of control | [13] 95 % of control

CCCCCCCCC[n+]1cccc(C(N)=O)c1
inactive: [1] 106 % of control

C=COCCC(C(=O)OCC)C(=O)OCC
inactive: [7] 100 % of control | [9] 96 % of control | [14] 100 % of control

CN(C)c1ccc(C(N)C(=O)O)cc1 (stereo unspecified)
inactive: dose: 50.0 mg/kg/injection, schedule: Q01DX001 (ip), vehicle: saline 101 % of control | [12] 98 % of control | [15] 95 % of control

CCCCCCCCCC1CCC(C(=O)O)CC1 (stereo unspecified)
inactive: dose: 75.0 mg/kg/injection, schedule: Q01DX009 (ip), vehicle: Klucel (hydroxypropylcellulose) (HPC) 105 % of control | dose: 150.0 mg/kg/injection, schedule: Q01DX009 (ip), vehicle: Klucel (hydroxypropylcellulose) (HPC) 96 % of control | dose: 300.0 mg/kg/injection, schedule: Q01DX009 (ip), vehicle: Klucel (hydroxypropylcellulose) (HPC) 98 % of control

N#CCC(=O)N1CCCCC1
inactive: dose: 50.0 mg/kg/injection, schedule: Q01DX001 (ip), vehicle: carboxymethylcellulose (CMC) 93 % of control | dose: 100.0 mg/kg/injection, schedule: Q01DX001 (ip), vehicle: carboxymethylcellulose (CMC) 93 % of control | dose: 200.0 mg/kg/injection, schedule: Q01DX001 (ip), vehicle: carboxymethylcellulose (CMC) 114 % of control | dose: 400.0 mg/kg/injection, schedule: Q01DX001 (ip), vehicle: carboxymethylcellulose (CMC) 95 % of control

CC[N+](CC)(CCOC(=O)C1C2CC3OC(=O)C1C3C2)Cc1ccccc1 (stereo unspecified)
inactive: dose: 12.5 mg/kg/injection, schedule: Q04DX003 (ip), vehicle: saline 89 % of control | dose: 25.0 mg/kg/injection, schedule: Q04DX003 (ip), vehicle: saline 89 % of control | [6] 106 % of control | [8] 93 % of control

NN=C1C(Cl)=C(Cl)C(Cl)=C1Cl
inactive: dose: 100.0 mg/kg/injection, schedule: Q04DX003 (ip), vehicle: Klucel (hydroxypropylcellulose) (HPC) 93 % of control | dose: 200.0 mg/kg/injection, schedule: Q04DX003 (ip), vehicle: Klucel (hydroxypropylcellulose) (HPC) 93 % of control | dose: 400.0 mg/kg/injection, schedule: Q04DX003 (ip), vehicle: Klucel (hydroxypropylcellulose) (HPC) 98 % of control
